Article PMC6232652 (Computational and Structural Biotechnology Journal, 2018)

Columns and labels:
[1] = system: A549 cells; assay: MTT cytotoxicity assay, A549; assay type: cell-based; details: Homo sapiens, A549, 72 h, read-out: IC50 A549, MTT, 72 h, mean ± SD
[2] = system: MCF-7 cells; assay: MTT cytotoxicity assay, MCF-7; assay type: cell-based; details: Homo sapiens, MCF7, 72 h, read-out: IC50 MCF-7, MTT, 72 h, mean ± SD
[3] = system: HepG2 cells; assay: MTT cytotoxicity assay, HepG2; assay type: cell-based; details: Homo sapiens, HepG2, 72 h, read-out: IC50 HepG2, MTT, 72 h, mean ± SD
[4] = system: A549 cells; assay: Cell cycle analysis by flow cytometry; details: 12 h, 4.20 μM 14d, 5.38 μM 19b; for Freq Sub-G1: control 0.07; for Freq G2 (percentage of cells in G2/M phase): control 18.21; for Freq S: control 32.62; for Freq G1: control 48.59
[5] = system: A549 cells; assay: Acridine orange; assay type: cell-based; details: 12 h, 4.20 μM 14d, 5.38 μM 19b
[6] = system: EGFR; details: read-out: IC50 (EGFR); previous investigation; cited from earlier work
[7] = previous investigation; cited from earlier work

SMILES | IC50 [1] [µM] | IC50 [2] [µM] | IC50 [3] [µM] | also measured
Cc1ccc(/C=N/NC(=O)Nc2cc3c(Nc4ccc(F)c(Cl)c4)ncnc3cc2O[C@H]2CCOC2)s1 [10c, (S,E)-N-(4-((3-chloro-4-fluorophenyl)amino)-7-((tetrahydrofuran-3-yl)oxy)quinazolin-6-yl)-2-((5-methylthiophen-2-yl)methylene)hydrazine carboxamide] | 28.4 ± 0.56 | 26.1 ± 1.33 | 29.2 ± 1.43 | –
CCc1ccc(/C=N/NC(=O)Nc2cc3c(Nc4ccc(F)c(Cl)c4)ncnc3cc2O[C@H]2CCOC2)s1 [10d, (S,E)-N-(4-((3-chloro-4-fluorophenyl)amino)-7-((tetrahydrofuran-3-Yl)oxy)quinazolin-6-Yl)-2-((5-ethylthiophen-2-Yl)methylene)hydrazine carboxamide] | 34.23 ± 0.31 | – | 36.2 ± 1.78 | –
CCc1ccc(/C=N/NC(=O)Nc2cc3c(Nc4ccc(F)c(Cl)c4)ncnc3cc2OC)s1 [11d, (E)-N-(4-((3-chloro-4-fluorophenyl)amino)-7-methoxyquinazolin-6-yl)-2-((5-ethylthiophen-2-yl)methylene)hydrazine carboxamide] | 35.3 ± 0.42 | – | 35.2 ± 1.08 | –
O=C(N/N=C/c1ccc[nH]1)Nc1cc2c(Nc3ccc(F)c(Cl)c3)ncnc2cc1O[C@H]1CCOC1 [10e, (S,E)-2-((1H-pyrrol-2-Yl)methylene)-N-(4-((3-chloro-4-fluorophenyl)amino)-7-((tetrahydrofuran-3-Yl)oxy)quinazolin-6-Yl)hydrazine carboxamide] | 2.41 ± 0.32 | 1.21 ± 0.19 | 0.59 ± 0.02 | –
COc1cc2ncnc(Nc3ccc(F)c(Cl)c3)c2cc1NC(=O)N/N=C/c1ccc(C)o1 [11b, (E)-N-(4-((3-chloro-4-fluorophenyl)amino)-7-methoxyquinazolin-6-yl)-2-((5-methylfuran-2-yl)methylene)hydrazine carboxamide] | 28.2 ± 1.34 | 35.2 ± 81 | 30.2 ± 1.16 | –
Cc1ccc(/C=N/NC(=O)Nc2cc3c(Nc4ccc(F)c(Cl)c4)ncnc3cc2O[C@H]2CCOC2)o1 [10b, (S,E)-N-(4-((3-Chloro-4-fluorophenyl)amino)-7-((tetrahydrofuran-3-Yl)Oxy)quinazolin-6-Yl)-2-((5-methylfuran-2-Yl)methylene)hydrazine carboxamide] | 28.2 ± 1.34 | 34.8 ± 1.01 | 33.2 ± 1.46 | –
CN(C)C/C=C/C(=O)Nc1cc2c(Nc3ccc(F)c(Cl)c3)ncnc2cc1O[C@H]1CCOC1 [Afatinib, reference compound] | – | – | – | Freq Sub-G1 [4]: 0.03%; Freq G2 (percentage of cells in G2/M phase) [4]: 47.45%; Freq S [4]: 12.92%; Freq G1 [4]: 39.41%
O=C(N/N=C/CN1CCCCC1)Nc1cc2c(Nc3ccc(F)c(Cl)c3)ncnc2cc1O[C@H]1CCOC1 [14d, (S,E)-N-(4-((3-chloro-4-fluorophenyl)amino)-7-((tetrahydrofuran-3-yl)oxy)quinazolin-6-yl)-2-(2-(piperidin-1-yl)ethylidene)hydrazine carboxamide] | – | – | – | Morphologic changes of A549 cells (AO staining), apoptosis [5]: can induce A549 cell apoptosis; Freq Sub-G1 [4]: 0.06%; Freq G2 (percentage of cells in G2/M phase) [4]: 23.62%; Freq S [4]: 48.44%; Freq G1 [4]: 27.08%
COc1cc2ncnc(Nc3ccc(F)c(Cl)c3)c2cc1NC(=O)N/N=C/c1ccco1 [11a, (E)-N-(4-((3-chloro-4-fluorophenyl)amino)-7-methoxyquinazolin-6-yl)-2-(furan-2-ylmethylene)hydrazine carboxamide] | 26.2 ± 1.23 | – | 29.7 ± 1.86 | –
O=C(N/N=C/c1ccco1)Nc1cc2c(Nc3ccc(F)c(Cl)c3)ncnc2cc1O[C@H]1CCOC1 [10a, (S,E)-N-(4-((3-chloro-4-fluorophenyl)amino)-7-((tetrahydrofuran-3-yl)oxy)quinazolin-6-yl)-2-(furan-2-ylmethylene)hydrazine carboxamide] | – | 33.4 ± 0.97 | 35.2 ± 1.53 | –
CN(C)CCn1cccc1/C=N/NC(=O)Nc1cc2c(Nc3ccc(F)c(Cl)c3)ncnc2cc1O[C@H]1CCOC1 [19b, (S,E)-N-(4-((3-chloro-4-fluorophenyl)amino)-7-((tetrahydrofuran-3-yl)oxy)quinazolin-6-yl)-2-((1-(2-(dimethylamino)ethyl)-1H-pyrrol-2-yl)methylene)hydrazine carboxamide] | – | – | – | Morphologic changes of A549 cells (AO staining), apoptosis [5]: can induce A549 cell apoptosis; Freq Sub-G1 [4]: 0.05%; Freq G2 (percentage of cells in G2/M phase) [4]: 22.31%; Freq S [4]: 43.84%; Freq G1 [4]: 33.23%
O=C(N/N=C/c1ccc(O)cc1)Nc1cc2c(Nc3ccc(F)c(Cl)c3)ncnc2cc1O[C@H]1CCOC1 [BMC201725-9o, (S,E)-N-(4-((3-chloro-4-fluorophenyl)amino)-7-((tetrahydrofuran-3-yl)oxy)quinazolin-6-yl)-2-(4-hydroxybenzylidene)hydrazine carboxamide] | – | – | – | IC50 [6]: 0.056 µM; solubility [7]: unsatisfactory solubility
COc1cc2ncnc(Nc3ccc(F)c(Cl)c3)c2cc1NC(=O)N/N=C/c1ccc(C)s1 [11c, (E)-N-(4-((3-chloro-4-fluorophenyl)amino)-7-methoxyquinazolin-6-yl)-2-((5-methylthiophen-2-yl)methylene)hydrazine carboxamide] | 29.3 ± 0.36 | 28.1 ± 1.13 | 27.4 ± 1.03 | –
